Data on 31 compounds can be found in ChEMBL document CHEMBL1155285, “3D-QSAR CoMFA/CoMSIA models based on theoretical active conformers of HOE/BAY-793 analogs derived from HIV-1 protease inhibitor complexes” (Eur J Med Chem, 2009).

By IC50 is commonly meant the concentration that inhibits the measured activity by half.

Protease, sequence (Q9YQ12 whole entry): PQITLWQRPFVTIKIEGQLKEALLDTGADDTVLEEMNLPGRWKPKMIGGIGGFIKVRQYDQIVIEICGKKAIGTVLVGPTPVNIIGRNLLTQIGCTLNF

This experiment addresses Protease (Human immunodeficiency virus 1, UniProt Q9YQ12). In words: Inhibition of HIV1 protease expressed in Escherichia coli K12 assessed as inhibition of enzyme activity.
`CC(C)[C@H](NC(=O)OCc1ccccc1)C(=O)N[C@@H](Cc1ccccc1)[C@@H](O)[C@H](O)[C@H](Cc1ccccc1)NC(=O)[C@@H](NC(=O)OCc1ccccc1)C(C)C`: the IC50 is 2 nM.

Consider `CC(C)(C)S(=O)(=O)C[C@@H](Cc1cccc2ccccc12)C(=O)N[C@H](C(=O)N[C@@H](Cc1ccccc1)[C@@H](O)[C@H](O)[C@H](Cc1ccccc1)NC(=O)[C@@H](NC(=O)[C@H](Cc1cccc2ccccc12)CS(=O)(=O)C(C)(C)C)C1CCCCC1)C1CCCCC1`, for which the IC50 is 1.7 nM. Next, `CC(O)[C@H](NC(=O)[C@H](Cc1cccc2ccccc12)CS(=O)(=O)C(C)(C)C)C(=O)N[C@@H](Cc1ccccc1)[C@@H](O)[C@H](O)[C@H](Cc1ccccc1)NC(=O)[C@@H](NC(=O)[C@H](Cc1cccc2ccccc12)CS(=O)(=O)C(C)(C)C)C(C)O` (stereo partly specified): 0.302 nM; `CC(C)[C@H](NC(=O)[C@@H](N)Cc1ccccc1)C(=O)N[C@@H](Cc1ccccc1)[C@@H](O)[C@H](O)[C@H](Cc1ccccc1)NC(=O)[C@@H](NC(=O)[C@@H](N)Cc1ccccc1)C(C)C`: 0.851 nM; `CC(C)[C@H](NC(=O)COc1cccc2ccccc12)C(=O)N[C@@H](Cc1ccccc1)[C@@H](O)[C@H](O)[C@H](Cc1ccccc1)NC(=O)[C@@H](NC(=O)COc1cccc2ccccc12)C(C)C`: 38 nM. Turning to `CC(C)[C@H](NC(=O)[C@H](Cc1cccc2ccccc12)CS(=O)(=O)C(C)(C)C)C(=O)N[C@@H](Cc1cccc2c1OCO2)[C@@H](O)[C@H](O)[C@H](Cc1cccc2c1OCO2)NC(=O)[C@@H](NC(=O)[C@H](Cc1cccc2ccccc12)CS(=O)(=O)C(C)(C)C)C(C)C`, the half-maximal inhibitory concentration (IC50) is 0.398 nM. In the case of `CC(C)(C)S(=O)(=O)C[C@@H](Cc1cccc2ccccc12)C(=O)N[C@H](C(=O)N[C@@H](Cc1ccccc1)[C@@H](O)[C@H](O)[C@H](Cc1ccccc1)NC(=O)[C@@H](NC(=O)[C@H](Cc1cccc2ccccc12)CS(=O)(=O)C(C)(C)C)C1CCCC1)C1CCCC1`, the IC50 is 0.302 nM.

For `COc1ccc(C[C@H](CS(=O)(=O)C(C)(C)C)C(=O)N[C@H](C(=O)N[C@@H](Cc2ccccc2)[C@@H](O)[C@H](O)[C@H](Cc2ccccc2)NC(=O)[C@@H](NC(=O)[C@H](Cc2ccc(OC)cc2)CS(=O)(=O)C(C)(C)C)C(C)C)C(C)C)cc1`, the concentration for half-maximal inhibition (IC50) was 0.339 nM. `CCC[C@H](NC(=O)[C@H](Cc1cccc2ccccc12)CS(=O)(=O)C(C)(C)C)C(=O)N[C@@H](Cc1ccccc1)[C@@H](O)[C@H](O)[C@H](Cc1ccccc1)NC(=O)[C@H](CCC)NC(=O)[C@H](Cc1cccc2ccccc12)CS(=O)(=O)C(C)(C)C`: the IC50 is 0.398 nM.

As for `CC(C)(C)S(=O)(=O)C[C@@H](Cc1cccc2ccccc12)C(=O)N[C@@H](CC(N)=O)C(=O)N[C@@H](Cc1ccccc1)[C@@H](O)[C@H](O)[C@H](Cc1ccccc1)NC(=O)[C@H](CC(N)=O)NC(=O)[C@H](Cc1cccc2ccccc12)CS(=O)(=O)C(C)(C)C`, the IC50 was 100 nM. `CC(C)(C)[C@H](NC(=O)[C@H](Cc1cccc2ccccc12)CS(=O)(=O)C(C)(C)C)C(=O)N[C@@H](Cc1ccccc1)[C@@H](O)[C@H](O)[C@H](Cc1ccccc1)NC(=O)[C@@H](NC(=O)[C@H](Cc1cccc2ccccc12)CS(=O)(=O)C(C)(C)C)C(C)(C)C`: the half-inhibitory concentration (IC50) was 0.501 nM. Take `COc1ccc(C[C@H](NC(=O)[C@@H](NC(=O)[C@H](Cc2cccc3ccccc23)CS(=O)(=O)C(C)(C)C)C(C)C)[C@@H](O)[C@H](O)[C@H](Cc2ccc(OC)cc2OC)NC(=O)[C@@H](NC(=O)[C@H](Cc2cccc3ccccc23)CS(=O)(=O)C(C)(C)C)C(C)C)c(OC)c1`: the IC50 was 18.2 nM.

`CC(C)(C)S(=O)(=O)C[C@@H](Cc1cccc2ccccc12)C(=O)N[C@@H](Cc1c[nH]cn1)C(=O)N[C@@H](Cc1ccccc1)[C@@H](O)[C@H](O)[C@H](Cc1ccccc1)NC(=O)[C@H](Cc1c[nH]cn1)NC(=O)[C@H](Cc1cccc2ccccc12)CS(=O)(=O)C(C)(C)C`: the IC50 is 339 nM.

`CC(C)[C@H](NC(=O)[C@H](Cc1cccc2ccccc12)CS(=O)(=O)C(C)(C)C)C(=O)N[C@@H](CCc1ccccc1)[C@@H](O)[C@H](O)[C@H](CCc1ccccc1)NC(=O)[C@@H](NC(=O)[C@H](Cc1cccc2ccccc12)CS(=O)(=O)C(C)(C)C)C(C)C`: the IC50 is 363 nM. Regarding `CCCCC[C@H](NC(=O)[C@@H](NC(=O)[C@H](Cc1cccc2ccccc12)CS(=O)(=O)C(C)(C)C)C(C)C)[C@@H](O)[C@H](O)[C@@H](CCCCC)NC(=O)[C@H](NC(=O)[C@H](Cc1cccc2ccccc12)CS(=O)(=O)C(C)(C)C)C(C)C`, the IC50 is 1 nM. With `CC(C)[C@H](NC(=O)CCS(=O)(=O)C(C)(C)C)C(=O)N[C@@H](Cc1ccccc1)[C@@H](O)[C@H](O)[C@H](Cc1ccccc1)NC(=O)[C@@H](NC(=O)CCS(=O)(=O)C(C)(C)C)C(C)C`, the half-maximal inhibitory concentration (IC50) is 3.98 nM. Consider `CC(C)[C@H](NC(=O)[C@@H](O)Cc1ccccc1)C(=O)N[C@@H](Cc1ccccc1)[C@@H](O)[C@H](O)[C@H](Cc1ccccc1)NC(=O)[C@@H](NC(=O)[C@@H](O)Cc1ccccc1)C(C)C`, for which the 50% inhibitory concentration (IC50) is 21.9 nM. Take `CC(C)[C@H](NC(=O)[C@H](Cc1cccc2ccccc12)CS(=O)(=O)C(C)(C)C)C(=O)N[C@@H](Cc1ccccc1)[C@@H](O)[C@H](O)[C@H](Cc1ccccc1)NC(=O)[C@@H](NC(=O)[C@H](Cc1cccc2ccccc12)CS(=O)(=O)C(C)(C)C)C(C)C`: the half-inhibitory concentration (IC50) was 0.302 nM. For the compound `CC(C)[C@H](NC(=O)N(C)Cc1ccccn1)C(=O)N[C@@H](Cc1ccccc1)C(O)C(O)[C@H](Cc1ccccc1)NC(=O)[C@@H](NC(=O)N(C)Cc1ccccn1)C(C)C` (single isomer, unassigned) [A-76928], the concentration for half-maximal inhibition (IC50) was 15.1 nM. `CC(C)[C@H](NC(=O)[C@H](Cc1cccc2ccccc12)CS(=O)(=O)C(C)(C)C)C(=O)N[C@@H](Cc1ccc(O)cc1)[C@@H](O)[C@H](O)[C@H](Cc1ccc(O)cc1)NC(=O)[C@H](NC(=O)[C@H](Cc1cccc2ccccc12)CS(=O)(=O)C(C)(C)C)C(C)C`: the half-maximal inhibitory concentration (IC50) was 2.88 nM.

For `CC(C)[C@H](NC(=O)[C@H](Cc1ccncc1)CS(=O)(=O)C(C)(C)C)C(=O)N[C@@H](Cc1ccccc1)[C@@H](O)[C@H](O)[C@H](Cc1ccccc1)NC(=O)[C@@H](NC(=O)[C@H](Cc1ccncc1)CS(=O)(=O)C(C)(C)C)C(C)C`, the 50% inhibitory concentration (IC50) was 0.794 nM.

Take `CC(C)[C@H](NC(=O)[C@H](Cc1cccc2ccccc12)CS(=O)(=O)C(C)(C)C)C(=O)N[C@@H](CCc1ccncc1)[C@@H](O)[C@H](O)[C@H](CCc1ccncc1)NC(=O)[C@@H](NC(=O)[C@H](Cc1cccc2ccccc12)CS(=O)(=O)C(C)(C)C)C(C)C`: the half-maximal inhibitory concentration (IC50) was 141 nM. With `CCC(C)[C@H](NC(=O)[C@H](Cc1cccc2ccccc12)CS(=O)(=O)C(C)(C)C)C(=O)N[C@@H](Cc1ccccc1)[C@@H](O)[C@H](O)[C@H](Cc1ccccc1)NC(=O)[C@@H](NC(=O)[C@H](Cc1cccc2ccccc12)CS(=O)(=O)C(C)(C)C)C(C)CC` (stereo partly specified) the figure was 0.302 nM; with `CC(C)[C@H](NC(=O)[C@H](Cc1cccc2ccccc12)NS(C)(=O)=O)C(=O)N[C@@H](Cc1ccccc1)[C@@H](O)[C@H](O)[C@H](Cc1ccccc1)NC(=O)[C@@H](NC(=O)[C@H](Cc1cccc2ccccc12)NS(C)(=O)=O)C(C)C`, 0.794 nM. With `CC(C)(C)S(=O)(=O)C[C@@H](Cc1cccc2ccccc12)C(=O)N[C@@H](CCC(=O)O)C(=O)N[C@@H](Cc1ccccc1)[C@@H](O)[C@H](O)[C@H](Cc1ccccc1)NC(=O)[C@H](CCC(=O)O)NC(=O)[C@H](Cc1cccc2ccccc12)CS(=O)(=O)C(C)(C)C` the figure was 0.741 nM. In the case of `CC(C)[C@H](NC(=O)CCS(=O)(=O)c1ccncc1)C(=O)N[C@@H](Cc1ccccc1)[C@@H](O)[C@H](O)[C@H](Cc1ccccc1)NC(=O)[C@@H](NC(=O)CCS(=O)(=O)c1ccncc1)C(C)C`, the IC50 was 3.98 nM. Consider `CC(C)[C@H](NC(=O)[C@H](Cc1ccccc1)CS(=O)(=O)C(C)(C)C)C(=O)N[C@@H](Cc1ccccc1)[C@@H](O)[C@H](O)[C@H](Cc1ccccc1)NC(=O)[C@@H](NC(=O)[C@H](Cc1ccccc1)CS(=O)(=O)C(C)(C)C)C(C)C`, for which the concentration for half-maximal inhibition (IC50) is 3.24 nM. With `CC(C)[C@H](NC(=O)[C@@H](CC(=O)O)Cc1ccccc1)C(=O)N[C@@H](Cc1ccccc1)[C@@H](O)[C@H](O)[C@H](Cc1ccccc1)NC(=O)[C@@H](NC(=O)[C@@H](CC(=O)O)Cc1ccccc1)C(C)C` the figure was 1.41 nM. In the case of `CC(C)[C@H](NC(=O)[C@H](Cc1cccc2ccccc12)CS(=O)(=O)C(C)(C)C)C(=O)NC[C@@H](O)[C@H](O)CNC(=O)[C@@H](NC(=O)[C@H](Cc1cccc2ccccc12)CS(=O)(=O)C(C)(C)C)C(C)C`, the IC50 was 2.19 nM. Regarding `CC(C)[C@H](NC(=O)[C@H](Cc1ccccc1)NC(=O)[C@@H](O)C(O)[C@@H](O)C(O)O)C(=O)N[C@@H](Cc1ccccc1)[C@@H](O)[C@H](O)[C@H](Cc1ccccc1)NC(=O)[C@@H](NC(=O)[C@H](Cc1ccccc1)NC(=O)[C@@H](O)[C@@H](O)[C@@H](O)C(O)O)C(C)C` (single isomer, unassigned), the concentration for half-maximal inhibition (IC50) is 0.891 nM. With `CC(C)[C@H](NC(=O)OCc1cccnc1)C(=O)N[C@@H](Cc1ccccc1)[C@@H](O)[C@H](O)[C@H](Cc1ccccc1)NC(=O)[C@@H](NC(=O)OCc1cccnc1)C(C)C`, the concentration for half-maximal inhibition (IC50) was 1.29 nM.
